The subject of this assay is symmetric dimethylation of arginine (SDMA) of PRMT5 substrates in MCF-7 cells. Put plainly: PRMT5 Cell Target Engagement (TE) Assay. In kind it is cell-based. To be noted: Homo sapiens, MCF7, 72 h; MCF-7 cells treated for 3 days; nuclear SDMA by high content imaging; top concentration 10000 nM. The gist of the method:
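MCF-7 cells treated 3 days at 37 °C with 10-point 1:3 titration from 10000 nM top. Fixed cells stained with anti-SDMA antibody plus Alexa488 secondary and Hoechst; nuclear fluorescence quantified by high-content imaging versus DMSO wells. EC50 from 4-parameter fit of percent fluorescence vs log concentration.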

In turn, `CNc1ncnc2c1ccn2[C@@H]1C[C@H](COc2ccc3cc(Br)c(N)nc3c2)[C@@](C)(O)[C@H]1O` [Example 93, (1R,2S,3R,5R)-5-(((2-amino-3-bromoquinolin-7-yl)oxy)methyl)-1-methyl-3-(4-(methylamino)-7H-pyrrolo[2,3-d]pyrimidin-7-yl)cyclopentane-1,2-diol] came in with an EC50 of 3.5 nM.

In turn, `CNc1ncnc2c1ccn2[C@@H]1O[C@@H]2[C@@H](Oc3ccc4cc(Br)c(N)nc4c3)CC[C@]2(O)[C@H]1O` [Example 94, (2R,3R,3aS,6S,6aR)-6-((2-amino-3-bromoquinolin-7-yl)oxy)-2-(4-(methylamino)-7H-pyrrolo[2,3-d]pyrimidin-7-yl)hexahydro-3aH-cyclopenta[b]furan-3,3a-diol] registered an EC50 of 5.3 nM.

Regarding `CNc1ncnc2c1ccn2[C@@H]1O[C@@H]2[C@H](Cc3ccc4cc(F)c(N)nc4c3)CC[C@]2(O)[C@H]1O` [Example 95, (2R,3R,3aS,6S,6aR)-6-((2-amino-3-fluoroquinolin-7-yl)methyl)-2-(4-(methylamino)-7H-pyrrolo[2,3-d]pyrimidin-7-yl)hexahydro-3aH-cyclopenta[b]furan-3,3a-diol], the EC50 came out at 47 nM. `CNc1ncnc2c1c(F)cn2[C@@H]1O[C@@H]2[C@H](Cc3ccc4cc(Br)c(N)nc4c3)CC[C@]2(O)[C@H]1O` [Example 96, (2R,3R,3aS,6S,6aR)-6-((2-amino-3-bromoquinolin-7-yl)methyl)-2-(5-fluoro-4-(methylamino)-7H-pyrrolo[2,3-d]pyrimidin-7-yl)hexahydro-3aH-cyclopenta[b]furan-3,3a-diol] gave an EC50 of 11.1 nM.

`CNc1ncnc2c1ccn2[C@@H]1C[C@@H]2[C@H](Cc3ccc4cc(Br)c(N)nc4c3)CC[C@]2(O)[C@H]1O` [Example 97, (1S,2R,3aR,4S,6aR)-4-((2-amino-3-bromoquinolin-7-yl)methyl)-2-(4-(methylamino)-7H-pyrrolo[2,3-d]pyrimidin-7-yl)hexahydropentalene-1,6a(1H)-diol] showed an EC50 of 1.3 nM. For `C[C@]1(COc2ccc3cccnc3c2)O[C@@H](n2ccc3c(N)ncnc32)[C@H](O)[C@@H]1O` [Example 98, (2R,3S,4R,5R)-5-(4-amino-7H-pyrrolo[2,3-d]pyrimidin-7-yl)-2-methyl-2-((quinolin-7-yloxy)methyl)tetrahydrofuran-3,4-diol], it took 272 nM to reach a half-maximal effect (EC50). On to `C[C@@]1(O)[C@@H](COc2ccc3cccnc3c2)O[C@@H](n2ccc3c(N)ncnc32)[C@@H]1O` [Example 99, (2R,3S,4R,5R)-5-(4-amino-7H-pyrrolo[2,3-d]pyrimidin-7-yl)-3-methyl-2-((quinolin-7-yloxy)methyl)tetrahydrofuran-3,4-diol], for which the concentration for a half-maximal effect (EC50) is 202 nM. Take `C[C@]1(COc2ccc3cc(Br)c(N)nc3c2)C[C@@H](n2ccc3c(N)ncnc32)[C@H](O)[C@@H]1O` [Example 100, (1S,2R,3R,5R)-3-(((2-amino-3-bromoquinolin-7-yl)oxy)methyl)-5-(4-amino-7H-pyrrolo[2,3-d]pyrimidin-7-yl)-3-methylcyclopentane-1,2-diol]: the midpoint of the response, the EC50, lay at 7.4 nM.

`C[C@]1(COc2ccc3ccc(N)nc3c2)C[C@@H](n2ccc3c(N)ncnc32)[C@H](O)[C@@H]1O` [Example 101, (1S,2R,3R,5R)-5-(4-amino-7H-pyrrolo[2,3-d]pyrimidin-7-yl)-3-(((2-aminoquinolin-7-yl)oxy)methyl)-3-methylcyclopentane-1,2-diol] gave a 50% effective concentration (EC50) of 1 nM.

In the case of `C[C@@]1(O)[C@@H](CCc2ccc3cc(Br)c(N)nc3c2)C[C@@H](n2ccc3c(N)ncnc32)[C@@H]1O` [Example 103, (1R,2S,3R,5S)-5-(2-(2-amino-3-bromoquinolin-7-yl)ethyl)-3-(4-amino-7H-pyrrolo[2,3-d]pyrimidin-7-yl)-1-methylcyclopentane-1,2-diol], the EC50 was found to be 12.4 nM.

`Nc1ccc2ccc(O[C@H]3CC[C@@]4(O)[C@@H]3O[C@@H](n3ccc5c(N)ncnc53)[C@@H]4O)cc2n1` [Example 104, (2R,3R,3aS,6S,6aR)-2-(4-amino-7H-pyrrolo[2,3-d]pyrimidin-7-yl)-6-((2-aminoquinolin-7-yl)oxy)hexahydro-2H-cyclopenta[b]furan-3,3a-diol]: the EC50 amounted to 7 nM. In turn, `C[C@@]1(O)[C@@H](COc2ccc3ccc(N)nc3c2)C[C@@H](n2ccc3cncnc32)[C@@H]1O` [Example 105, (1R,2S,3R,5R)-5-(((2-aminoquinolin-7-yl)oxy)methyl)-1-methyl-3-(7H-pyrrolo[2,3-d]pyrimidin-7-yl)cyclopentane-1,2-diol] displayed an EC50 of 0.9 nM. `Cc1cc2ccc(OC[C@H]3C[C@@H](n4ccc5c(C)ncnc54)[C@H](O)[C@]3(C)O)cc2nc1N` [Example 106, (1R,2S,3R,5R)-5-(((2-amino-3-methylquinolin-7-yl)oxy)methyl)-1-methyl-3-(4-methyl-7H-pyrrolo[2,3-d]pyrimidin-7-yl)cyclopentane-1,2-diol] yielded an EC50 of 0.5 nM.

Regarding `Cc1ncnc2c1ccn2[C@@H]1O[C@@H]2[C@H](Cc3ccc4ccc(N)nc4c3)CC[C@]2(O)[C@H]1O` [Example 107, (2R,3R,3aS,6S,6aR)-6-((2-aminoquinolin-yl)methyl)-2-(4-methyl-7H-pyrrolo[2,3-d]pyrimidin-7-yl)hexahydro-2H-cyclopenta[b]furan-3,3a-diol], the response was half-maximal at 0.5 nM (EC50). Molecule `Nc1nc2cc(C[C@@H]3CC[C@@]4(O)[C@@H]3O[C@@H](n3cc(F)c5c(N)ncnc53)[C@@H]4O)ccc2cc1Br` [Example 108] came in with an EC50 of 0.9 nM. `Cc1ncnc2c1ccn2[C@@H]1C[C@](C)(CCc2ccc3cc(Br)c(N)nc3c2)[C@@H](O)[C@H]1O` [Example 109, (1S,2R,3S,5R)-3-(2-(2-amino-3-bromoquinolin-7-yl)ethyl)-3-methyl-5-(4-methyl-7H-pyrrolo[2,3-d]pyrimidin-7-yl)cyclopentane-1,2-diol] came in with an EC50 of 5.9 nM. `Cc1ncnc2c1ccn2[C@@H]1C[C@](C)(CCc2ccc3cc4c(nc3c2)NCC4)[C@@H](O)[C@H]1O` [Example 110, (1S,2R,3S,5R)-3-(2-(2,3-dihydro-1H-pyrrolo[2,3-b]quinolin-7-yl)ethyl)-3-methyl-5-(4-methyl-7H-pyrrolo[2,3-d]pyrimidin-7-yl)cyclopentane-1,2-diol] displayed an EC50 of 39.6 nM. In turn, `C[C@]1(COc2ccc3cc(Br)c(N)nc3c2)C[C@@H](n2ccc3c(N)ncnc32)[C@H](O)[C@]1(C)O` [Example 111, (1R,2S,3R,5R)-5-(((2-amino-3-bromoquinolin-7-yl)oxy)methyl)-3-(4-amino-7H-pyrrolo[2,3-d]pyrimidin-7-yl)-1,5-dimethylcyclopentane-1,2-diol] gave an EC50 of 2330 nM. `Cc1ncnc2c1ccn2[C@@H]1O[C@@H]2[C@@H](Oc3ccc4cc(Cl)c(N)nc4c3)CC[C@]2(O)[C@H]1O` [Example 112, (2R,3R,3aS,6S,6aR)-6-((2-amino-3-chloroquinolin-7-v)oxy)-2-(4-methyl-7H-pyrrolo[2,3-d]pyrimidin-7-yl)hexahydro-2H-cyclopenta[b]furan-3,3a-diol] displayed an EC50 of 4 nM. For the molecule `Cc1ncnc2c1ccn2[C@@H]1O[C@@H]2[C@@H](Oc3ccc4ccc(N)nc4c3)CC[C@]2(O)[C@H]1O` [Example 113, (2R,3R,3aS,6S,6aR)-6-((2-aminoquinolin-7-yl)oxy)-2-(4-methyl 7H-pyrrolo[2,3-d]pyrimidin-7-yl)hexahydro-2H-cyclopenta[b]furan-3,3a-diol], the EC50 amounted to 1.8 nM.

Values taken from patent publication US12173026B2, “PRMT5 inhibitors” (Merck Sharp & Dohme LLC, priority 2018, dated 2024).
